From patent US20020137929A1, “1 - (3-heterocyclylphenyl) isothiourea, -isourea, -guanidine and -amidine herbicidal agents” (Intellectual Property Department, BASF Aktiengesellschaft, priority 1998, published 2002)

Columns and labels:
[1] = system: ORYSAT (Rice, Tebonnet); assay: Preemergence herbicidal evaluation; format: in vivo, Oryza sativa, (L.) Tebonnet; conditions: preemergence, rated 4-5 weeks after treatment, 0-9 scale
Summary of the method: (§1)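 Sown cups got a single aqueous acetone spray of test compound (roughly 0.0156–0.500 kg/ha) before seedlings emerged. Evaluation, 4–5 weeks on, used a 0–9 visual scale covering plant stand, vigor, size, malformation, chlorosis and general appearance compared with controls.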

[2] = system: AMBEL (Ragweed, Common); assay: Preemergence herbicidal evaluation; format: in vivo, Ambrosia artemisifolia; conditions: preemergence, rated 4-5 weeks after treatment, 0-9 scale
Summary of the method: as §1

[3] = system: GLXMAW (Soybean, Williams); assay: Preemergence herbicidal evaluation; format: in vivo, Glycine max, (L.) Merr. cv Williams; conditions: preemergence, rated 4-5 weeks after treatment, 0-9 scale
Summary of the method: as §1

[4] = system: IPOHE (Morningglory, Ivyleaf); assay: Postemergence herbicidal evaluation; format: in vivo, Ipomoea hederacea; conditions: postemergence
Summary of the method: (§2)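 Visual 0-9 injury score (stand, vigor, malformation, size, chlorosis, appearance vs untreated) taken four to five weeks post-spray, averaged across repeat tests. Test plants about two weeks old; foliar spray of acetone/water (1:1) with 0.5% surfactant delivering ~0.0156-0.500 kg active/ha.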

[5] = system: ECHCG (Barnyardgrass); assay: Postemergence herbicidal evaluation; format: in vivo, Echinochloa crus-galli; conditions: postemergence
Summary of the method: as §2

[6] = system: MOOVA (Monochoria); assay: Preemergence weed control under flooded paddy conditions; format: in vivo, Monochoria vaginalis; conditions: rated 3-4 weeks after treatment
Summary of the method: (§3)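 Flooded-pot preemergence screen with silt loam and seeds in the upper 0.5 cm. Dose about 0.0313 to 0.500 kg/ha, delivered into flood water; visual 0-9 score after 3 to 4 weeks.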

[7] = system: AMBEL (Ragweed, Common); assay: Postemergence herbicidal evaluation; format: in vivo, Ambrosia artemisifolia; conditions: postemergence
Summary of the method: as §2

[8] = system: TRZAWR (Wheat, Winter, cv Riband); assay: Postemergence herbicidal evaluation; format: in vivo, Triticum aestivum; conditions: postemergence
Summary of the method: as §2

[9] = system: GLXMAW (Soybean, Williams); assay: Postemergence herbicidal evaluation; format: in vivo, Glycine max, (L.) Merr. cv Williams; conditions: postemergence
Summary of the method: as §2

[10] = system: CASOB (Sicklepod); assay: Preemergence herbicidal evaluation; format: in vivo, Cassia obtusifolia; conditions: preemergence, rated 4-5 weeks after treatment, 0-9 scale
Summary of the method: as §1

[11] = system: ABUTH (Velvetleaf); assay: Preemergence herbicidal evaluation; format: in vivo, Abutilon theophrasti; conditions: preemergence, rated 4-5 weeks after treatment, 0-9 scale
Summary of the method: as §1

[12] = system: CHEAL (Lambsquarters, Common); assay: Postemergence herbicidal evaluation; format: in vivo, Chenopodium album; conditions: postemergence
Summary of the method: as §2

[13] = system: CHEAL (Lambsquarters, Common); assay: Preemergence herbicidal evaluation; format: in vivo, Chenopodium album; conditions: preemergence, rated 4-5 weeks after treatment, 0-9 scale
Summary of the method: as §1

[14] = system: IPOHE (Morningglory, Ivyleaf); assay: Preemergence herbicidal evaluation; format: in vivo, Ipomoea hederacea; conditions: preemergence, rated 4-5 weeks after treatment, 0-9 scale
Summary of the method: as §1

[15] = system: CASOB (Sicklepod); assay: Postemergence herbicidal evaluation; format: in vivo, Cassia obtusifolia; conditions: postemergence
Summary of the method: as §2

[16] = system: SAGPY (Arrowhead (Pygmaea)); assay: Preemergence weed control under flooded paddy conditions; format: in vivo, Sagittaria pygmaea; conditions: rated 3-4 weeks after treatment
Summary of the method: as §3

C=CCN1C(=O)C(CC(N)=O)SC1=Nc1cc(-n2c(=O)cc(C(F)(F)F)n(C)c2=O)c(F)cc1Cl (stereo not shown) [Compound 99, 3-Allyl-2-{{2-chloro-5-[3,6-dihydro-3-methyl-2,6-dioxo-4-(trifluoromethyl)-1(2H)-pyrimidinyl]-4-fluorophenyl}imino}-4-oxo-5-thiazolidineacetamide]
ORYSAT rating ([1]; 0.0156 kg/ha): 0.0
ORYSAT rating ([1]; 0.0313 kg/ha): 0.0
ORYSAT rating ([1]; 0.0625 kg/ha): 1.0
ORYSAT rating ([1]; 0.1250 kg/ha): 1.0
ORYSAT rating ([1]; 0.2500 kg/ha): 4.0
ORYSAT rating ([1]; 0.5000 kg/ha): 4.0
AMBEL rating ([2]; 0.0156 kg/ha): 0.0
AMBEL rating ([2]; 0.0313 kg/ha): 0.0
AMBEL rating ([2]; 0.0625 kg/ha): 4.0
AMBEL rating ([2]; 0.1250 kg/ha): 9.0
AMBEL rating ([2]; 0.2500 kg/ha): 9.0
AMBEL rating ([2]; 0.5000 kg/ha): 9.0
GLXMAW rating ([3]; 0.0156 kg/ha): 0.0
GLXMAW rating ([3]; 0.0313 kg/ha): 0.0
GLXMAW rating ([3]; 0.0625 kg/ha): 3.0
GLXMAW rating ([3]; 0.1250 kg/ha): 4.0
GLXMAW rating ([3]; 0.2500 kg/ha): 7.0
GLXMAW rating ([3]; 0.5000 kg/ha): 7.0
herbicidal rating IPOHE ([4]; rate 0.0156 kg/ha): 9.0
herbicidal rating IPOHE ([4]; rate 0.0313 kg/ha): 9.0
IPOHE herbicidal rating ([4]; rate 0.0625 kg/ha): 9.0
IPOHE herbicidal rating ([4]; rate 0.1250 kg/ha): 9.0
herbicidal rating ECHCG ([5]; rate 0.0156 kg/ha): 4.0
herbicidal rating ECHCG ([5]; rate 0.0313 kg/ha): 4.0
ECHCG herbicidal rating ([5]; rate 0.0625 kg/ha): 7.0
ECHCG herbicidal rating ([5]; rate 0.1250 kg/ha): 6.0
MOOVA herbicidal effect rating ([6]; 0.0313 kg/ha): 9.0
MOOVA herbicidal effect rating ([6]; 0.0625 kg/ha): 9.0
MOOVA herbicidal effect rating ([6]; 0.1250 kg/ha): 9.0
MOOVA herbicidal effect rating ([6]; 0.2500 kg/ha): 9.0
MOOVA herbicidal effect rating ([6]; 0.5000 kg/ha): 9.0
herbicidal rating AMBEL ([7]; rate 0.0156 kg/ha): 9.0
herbicidal rating AMBEL ([7]; rate 0.0313 kg/ha): 9.0
AMBEL herbicidal rating ([7]; rate 0.0625 kg/ha): 9.0
AMBEL herbicidal rating ([7]; rate 0.1250 kg/ha): 9.0
herbicidal rating TRZAWR ([8]; rate 0.0156 kg/ha): 4.0
herbicidal rating TRZAWR ([8]; rate 0.0313 kg/ha): 4.5
TRZAWR herbicidal rating ([8]; rate 0.0625 kg/ha): 5.5
TRZAWR herbicidal rating ([8]; rate 0.1250 kg/ha): 6.5
herbicidal rating GLXMAW ([9]; rate 0.0156 kg/ha): 6.5
herbicidal rating GLXMAW ([9]; rate 0.0313 kg/ha): 7.5
GLXMAW herbicidal rating ([9]; rate 0.0625 kg/ha): 8.0
GLXMAW herbicidal rating ([9]; rate 0.1250 kg/ha): 8.0
CASOB rating ([10]; 0.0156 kg/ha): 0.0
CASOB rating ([10]; 0.0625 kg/ha): 1.0
CASOB rating ([10]; 0.1250 kg/ha): 2.0
CASOB rating ([10]; 0.2500 kg/ha): 3.0
CASOB rating ([10]; 0.5000 kg/ha): 7.0
ABUTH rating ([11]; 0.0156 kg/ha): 9.0
ABUTH rating ([11]; 0.0313 kg/ha): 9.0
ABUTH rating ([11]; 0.0625 kg/ha): 9.0
ABUTH rating ([11]; 0.1250 kg/ha): 9.0
ABUTH rating ([11]; 0.2500 kg/ha): 9.0
ABUTH rating ([11]; 0.5000 kg/ha): 9.0
herbicidal rating CHEAL ([12]; rate 0.0156 kg/ha): 7.0
herbicidal rating CHEAL ([12]; rate 0.0313 kg/ha): 7.0
CHEAL herbicidal rating ([12]; rate 0.0625 kg/ha): 9.0
CHEAL herbicidal rating ([12]; rate 0.1250 kg/ha): 9.0
CHEAL rating ([13]; 0.0156 kg/ha): 9.0
CHEAL rating ([13]; 0.0313 kg/ha): 9.0
CHEAL rating ([13]; 0.0625 kg/ha): 9.0
CHEAL rating ([13]; 0.1250 kg/ha): 9.0
CHEAL rating ([13]; 0.2500 kg/ha): 9.0
CHEAL rating ([13]; 0.5000 kg/ha): 9.0
IPOHE rating ([14]; 0.0156 kg/ha): 0.0
IPOHE rating ([14]; 0.0313 kg/ha): 0.0
IPOHE rating ([14]; 0.0625 kg/ha): 9.0
IPOHE rating ([14]; 0.1250 kg/ha): 9.0
IPOHE rating ([14]; 0.2500 kg/ha): 9.0
IPOHE rating ([14]; 0.5000 kg/ha): 9.0
herbicidal rating CASOB ([15]; rate 0.0156 kg/ha): 4.0
herbicidal rating CASOB ([15]; rate 0.0313 kg/ha): 7.0
CASOB herbicidal rating ([15]; rate 0.0625 kg/ha): 8.0
CASOB herbicidal rating ([15]; rate 0.1250 kg/ha): 9.0
SAGPY herbicidal effect rating ([16]; 0.0313 kg/ha): 0.0
SAGPY herbicidal effect rating ([16]; 0.0625 kg/ha): 0.0
SAGPY herbicidal effect rating ([16]; 0.1250 kg/ha): 3.0
SAGPY herbicidal effect rating ([16]; 0.2500 kg/ha): 4.0
SAGPY herbicidal effect rating ([16]; 0.5000 kg/ha): 4.0
